What was measured:
[1] = molecular target: T1, Tyrosine-protein kinase ITK/TSK (Homo sapiens, UniProt Q08881)
T1 sequence (Q08881 whole entry): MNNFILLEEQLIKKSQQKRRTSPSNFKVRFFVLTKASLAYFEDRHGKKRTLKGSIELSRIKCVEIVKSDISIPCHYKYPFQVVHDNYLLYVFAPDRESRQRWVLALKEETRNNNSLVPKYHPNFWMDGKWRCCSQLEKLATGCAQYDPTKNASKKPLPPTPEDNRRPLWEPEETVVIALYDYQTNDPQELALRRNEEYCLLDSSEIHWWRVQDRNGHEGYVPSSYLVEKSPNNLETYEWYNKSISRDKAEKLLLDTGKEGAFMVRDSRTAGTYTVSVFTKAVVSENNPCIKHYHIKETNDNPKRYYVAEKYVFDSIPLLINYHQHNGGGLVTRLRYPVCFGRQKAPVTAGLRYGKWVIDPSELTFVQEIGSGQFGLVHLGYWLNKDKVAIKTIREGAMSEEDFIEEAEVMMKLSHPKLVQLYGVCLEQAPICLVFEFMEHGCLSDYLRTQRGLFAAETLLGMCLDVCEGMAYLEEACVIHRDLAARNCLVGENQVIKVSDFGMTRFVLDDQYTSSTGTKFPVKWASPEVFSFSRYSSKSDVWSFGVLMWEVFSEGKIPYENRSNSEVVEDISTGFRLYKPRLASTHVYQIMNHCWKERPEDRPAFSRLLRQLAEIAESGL

[2] = molecular target: Tyrosine-protein kinase Lck (Homo sapiens, UniProt P06239)
Sequence of Tyrosine-protein kinase Lck (P06239 whole entry): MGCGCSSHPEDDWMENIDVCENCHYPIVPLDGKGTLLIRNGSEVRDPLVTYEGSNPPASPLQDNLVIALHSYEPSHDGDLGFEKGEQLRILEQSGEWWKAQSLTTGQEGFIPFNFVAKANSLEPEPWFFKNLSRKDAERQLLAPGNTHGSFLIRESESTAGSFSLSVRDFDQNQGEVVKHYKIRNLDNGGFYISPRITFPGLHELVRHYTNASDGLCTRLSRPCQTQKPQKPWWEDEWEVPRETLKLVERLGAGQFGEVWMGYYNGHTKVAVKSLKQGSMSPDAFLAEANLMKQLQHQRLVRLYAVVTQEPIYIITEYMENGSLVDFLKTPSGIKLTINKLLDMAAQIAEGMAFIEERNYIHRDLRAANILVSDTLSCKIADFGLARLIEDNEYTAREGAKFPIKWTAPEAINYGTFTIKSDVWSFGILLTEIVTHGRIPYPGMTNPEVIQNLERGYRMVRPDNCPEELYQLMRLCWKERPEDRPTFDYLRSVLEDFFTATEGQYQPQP

Ki [1] [nM] | Ki [2] [nM] | Structure (SMILES)
16 |  | COc1cc(C)c(Sc2cnc(NC(=O)c3ccc(CNC(C)C(C)(C)C)cc3)s2)cc1C(=O)N1CCN(C(C)=O)CC1 (configuration not stated)
 | 4 | Cc1cccc(Cl)c1NC(=O)c1ccc2nc(NC(=O)NC(C)(C)C)sc2c1
